Legend:
[1] = tested on: A2780 ovarian cancer cells; experiment: Western blot for activated caspase-3, A2780 cells; assay type: cell-based, human
Procedure: (§1) Cells were treated with drug as described above. Cells were then scraped from the culture vessel, pelleted at 2000 rpm at room temperature and lysed in phosphate buffered saline with 1% NP40, 0.1% sodium dodecyl sulfate. After 20 min on ice, debris was removed by centrifugation at 14,000×g at 4° C.
(§2) Protein concentration was determined and 20 μg samples were denatured in sample buffer (2.5% SDS, 10% glycerol, 5% b-mercaptoethanol, 0.15 M Tris (pH 6.8) and 0.01% broinophenol blue) and subjected to 10 or 12% SDS-PAGE. Proteins were transferred to PVDF membranes (Immobilon, Millipore, Bedford, Mass.) at 100V for 105 min.
(§3) Western blots were performed as previously described (32) (28). Antibodies and concentrations were: rabbit anti-actin (Sigma, 1:10,000), rabbit anti-proform caspase-3 (Santa Cruz, Santa Cruz Calif. 1:1000), rabbit anti-cleaved-caspase-3 (CellSignaling, 1:1000). Antibody binding was determined by enhanced chemiluminescence detection of peroxidase conjugated secondary antibodies (Vector).

EOC cells S 103 = experiment: TUNEL assay, EOC cells S103; assay type: cell-based, human; details: S 103 cells
Procedure: (§4) To avoid loss of the apoptotic cells, which detach from monolayer culture and are washed away, cells were cultured in suspension above a one ml layer of 1% agarose per well of a 6-well plate. Two ml of cells at 1×10^5/ml growth medium were placed in each well and incubated at 37° C. with 5% CO2. Plates were agitated gently once per day. After drug exposure for 4 hr, the cells were centrifuged, resuspended in fresh medium and returned to the same wells for 48 hr. Cells were centrifuged at 1000 rpm for 10 min, resuspended in 0.5 ml 10% neutral buffered formalin and incubated at room temperature for 10 min. Centrifugation was repeated and cells were resuspended in 80% ethanol. A 25 μl aliquot was pipeted onto a glass slide and dried at room temperature until no moisture was evident. Cells were calorimetrically stained with TUNEL assay reagents (Trevigen) according to the protocol provided by the manufacturer.

[2] = tested on: Three established ovarian cancer cell lines and 19 ovarian cancer patient-derived cell samples; experiment: Caspase-3 assay, distribution of apoptotic response over 22 cases; assay type: cell-based, human; details: of 22 cases, drugs tested separately
Procedure: Ovarian cancer cell lines HEY (gift from Dr. J M Trent, (26)), A2780 and CP70 (gifts from Dr. T C Hamilton, (27)) were cultured at 37° C. in a 5% CO2 atmosphere. Culture medium varied with the cell line: […] All formulations contained 100 μg/ml streptomycin, 62.5 μg/ml penicillin and 2.5 μg/ml amphotericin. […] For drug treatments, approximately 1×10^5 cells in exponential growth were sub-cultured in a 25 cm^2 flask per treatment. […] With informed consent from 28 patients undergoing routine procedures at Yale-New Haven Hospital 100 to 200 ml of ascites fluid or pelvic washings were obtained. Epithelial cells were collected as previously described (28). Briefly, samples were centrifuged and the cellular pellet was resuspended in Hank's Balanced Salt Solution (HBSS; Gibco Invitrogen, Carlsbad, Calif.). The suspension was centrifuged at 1500 rpm for 10 mins at room temperature. The pellet was then resuspended in HBSS and layered onto LSM lymphocyte separation medium (ICN Biomedicals Inc, Aurora, Ill.) and centrifuged at 2000 rpm for 25 minutes at room temperature. The mononuclear cell-containing layer was collected and incubated with an anti-CD45 mAb conjugated to magnetic beads (Dynal, Oslo, Norway) at 4° C. with rotation for 30 minutes. Following this incubation, the cells were placed into a magnet and the unbound epithelial cells were collected, washed and placed into culture media. […] Remaining cells were cultured in primary culture medium as described above and evaluated for morphological evidence of malignancy by a pathologist. Viable, malignant cells were isolated from 21 of the 28 samples. In agreement with Lounis et al. (29), any fibroblastic cells in the isolated population disappeared after 2 to 3 passages and cells survived on average for 7 to 8 passages. […] Lysates were incubated on ice for 30 min, mixing every 5 min by gentle vortexing. […] Supernatants were frozen and stored at -70° C. Protein concentration was determined by BioRad Protein Assay (BioRad). […] CaspACETM Assay System, Colorimetric). […] Plates were incubated at 37° C. for 4 hr. Absorbance of the cleaved product was read at 405 nm in a Dynatech MR3000 plate reader. Blank values were subtracted and caspase-3 activity was expressed as the absorbance at 405 nm of the cleaved substrate (pNA). Drug treated samples were compared with samples which had not been treated to give a value called relative activity.

A2780 cells = experiment: Caspase-3 assay (dose response and time course), A2780 cells; assay type: cell-based, human
Procedure: (§5) Ovarian cancer cell lines HEY (gift from Dr. J M Trent, (26)), A2780 and CP70 (gifts from Dr. T C Hamilton, (27)) were cultured at 37° C. in a 5% CO2 atmosphere. Culture medium varied with the cell line: DME/F12 plus 1% calf serum (HEY); DME/F12 plus 10% FBS, 584 ug/ml L glutamine (A2780 and CP70). All formulations contained 100 μg/ml streptomycin, 62.5 μg/ml penicillin and 2.5 μg/ml amphotericin. Primary cells were cultured in 50% 199 media and 50% MCDB 105 media (Sigma), supplemented with 10% fetal bovine serum (Hyclone, South Logan, Utah), 10 mM HEPES, 0.1 mM MEM non-essential amino acids, 1 mM sodium pyruvate, 100 nM penicili/streptomycin (Gibco) and 4 ng/ml EGF (Sigma). […]
(§6) After drug treatment, cells were lysed and collected in cold 10 mM Tris, pH 7.5, 10 mM Na Phosphate buffer, 130 mM NaCl, 1% Triton X-100, 10 mM Na Pyrophosphate plus freshly added Protease Inhibitor Cocktail (20 μl/ml, Sigma P8340) and 2 MM PMSF. […] Protein concentration was determined by BioRad Protein Assay (BioRad).
(§7) Caspase-3 activity was measured in duplicate from 50 μg cell lysate samples (lysate comprised less than 20% of the total reaction volume)(Promega Corp. CaspACE™ Assay System, Colorimetric). […] Absorbance of the cleaved product was read at 405 nm in a Dynatech MR3000 plate reader. Blank values were subtracted and caspase-3 activity was expressed as the absorbance at 405 nm of the cleaved substrate (pNA). […]

EOC R182 cells = experiment: Western blot for activated caspase-3, EOC R182 cells; assay type: cell-based, human
Procedure: as §1, §2, §3

CP70 cells [3] = experiment: Western blot for activated caspase-3, CP70 cells; assay type: cell-based, human
Procedure: as §1, §2, §3

EOC cells RI82S = experiment: TUNEL assay, EOC cells R182S; assay type: cell-based, human
Procedure: as §4

CP70 = experiment: Clonogenic assay, CP70 cell line; assay type: cell-based, human
Procedure: (§8) Ovarian cancer cell lines HEY (gift from Dr. J M Trent, (26)), A2780 and CP70 (gifts from Dr. T C Hamilton, (27)) were cultured at 37° C. in a 5% CO2 atmosphere. Culture medium varied with the cell line: DME/F12 plus 1% calf serum (HEY); DME/F12 plus 10% FBS, 584 ug/ml L glutamine (A2780 and CP70). All formulations contained 100 μg/ml streptomycin, 62.5 μg/ml penicillin and 2.5 μg/ml amphotericin. Primary cells were cultured in 50% 199 media and 50% MCDB 105 media (Sigma), supplemented with 10% fetal bovine serum (Hyclone, South Logan, Utah), 10 mM HEPES, 0.1 mM MEM non-essential amino acids, 1 mM sodium pyruvate, 100 nM penicili/streptomycin (Gibco) and 4 ng/ml EGF (Sigma). For drug treatments, approximately 1×10^5 cells in exponential growth were sub-cultured in a 25 cm^2 flask per treatment. Carboplatin (Sigma C2538) or paclitaxel (Sigma T7402) was added to the media after the cells reached 60-70% confluence as described in the Results.
Cells were seeded at 600 per 60 mm culture dish and incubated overnight to establish adherence then exposed to varying concentrations of drug for 4 hours. Medium was replaced and incubation was continued for 10-14 days. The cells were washed with 0.9% saline solution then fixed and stained in 72% methanol, 10% formaldehyde, 0.25% crystal violet. Colonies greater than 30 cells were counted. Percent survival was calculated based on the number of colonies in untreated dishes. Each treatment was done at least in duplicate.

[4] = tested on: invasive ovarian carcinoma; details: of 13 patients
Source text: Patients were monitored for disease recurrence based on physical symptoms, physical examination, CA-125 levels and radiologic imaging. Chemosensitivity is defined as no evidence of disease recurrence, based on the above monitoring, within 6 months of completing the chemotherapy regimen of carboplatin and paclitaxel. Sensitivity of six months is commonly used to define which patients are platinum-sensitive in order to direct second-line therapy (30).

CP70 cells [5] = experiment: Caspase-3 assay (dose response and time course), CP70 cells; assay type: cell-based, human; details: CP70, 0.1 μM, 30 hours treatment
Procedure: as §5, §6, §7

HEY = experiment: Clonogenic assay, HEY cell line; assay type: cell-based, human
Procedure: as §8
(§9) Cells were seeded at 600 per 60 mm culture dish and incubated overnight to establish adherence then exposed to varying concentrations of drug for 4 hours. Medium was replaced and incubation was continued for 10-14 days. […] Colonies greater than 30 cells were counted. Percent survival was calculated based on the number of colonies in untreated dishes. […]

A2780 = experiment: Clonogenic assay, A2780 cell line; assay type: cell-based; details: Homo sapiens, clonogenic survival, 4 hours drug exposure, 10-14 days
Procedure: as §8, §9

## N.N.O=C([O-])C1(C(=O)[O-])CCC1.[Pt+2] [Carboplatin]
[1]; A2780, carboplatin treatment
  expression of the active forms of caspase-3: moderate levels
EOC cells S 103; 100 μg/ml
  percentage of cells that stain for apoptosis (TUNEL): 30.40%
[2]
  Number of Cases Resistant (no increase of caspase-3 activity): 1
  Number of Cases Sensitive (increased caspase-3 activity relative to untreated samples): 21
[2]; listed as carboplatin
  Number of Cases Resistant (no increase of caspase-3 activity): one
A2780 cells; A2780, 24 hour exposure
  caspase-3 activity: significant caspase-3 activity
A2780 cells; A2780, 48 hour treatment, 100 μg/ml
  caspase-3 activity: Optimal activity
EOC R182 cells; EOC R182, 100 μg/ml for 48 hr
  expression of the active forms of caspase-3: No active forms of caspase-3 are present
CP70 cells [3]; CP70, 100 μg/ml for 48 hr
  expression of the active forms of caspase-3: No active forms of caspase-3 are present
EOC cells RI82S; 100 μg/ml
  percentage of TUNEL-positive cells: 90%
CP70; clonogenic IC50, CP70 vs A2780
  resistance of CP70 relative to A2780: about 25 fold

## Carboplatin and Paclitaxel
[4]; no evidence of disease recurrence for 6 months following completion of the regimen
  number of patients clinically responsive (chemo-sensitive): seven
[4]; recurrence within 6 months of completing the regimen
  number of patients chemo-resistant: six
[2]
  Number of Cases Resistant (no increase of caspase-3 activity): 1
  Number of Cases Sensitive (increased caspase-3 activity relative to untreated samples): 10

## CC(=O)O[C@H]1C(=O)[C@@]2(C)[C@H]([C@H](OC(=O)c3ccccc3)[C@]3(O)C[C@H](OC(=O)[C@H](O)[C@@H](NC(=O)c4ccccc4)c4ccccc4)C(C)=C1C3(C)C)[C@]1(OC(C)=O)CO[C@@H]1C[C@@H]2O [Paclitaxel]
CP70 cells [5]
  caspase-3 activity: significant caspase-3 activity
[1]; A2780, paclitaxel treatment
  expression of the active forms of caspase-3: high levels
EOC cells S 103; 0.1 μM
  increase in number of TUNEL-positive cells compared to the untreated controls: 10-20%
[2]
  Number of Cases Resistant (no increase of caspase-3 activity): 12
  Number of Cases Sensitive (increased caspase-3 activity relative to untreated samples): 10
[2]; listed as paclitaxel
  Number of Cases Resistant (no increase of caspase-3 activity): Twelve
  Number of Cases Sensitive (increased caspase-3 activity relative to untreated samples): Ten
HEY; HEY cells, clonogenic assay
  relative response among the three cell lines: most resistant
HEY; Homo sapiens, HEY, clonogenic survival, 4 hours drug exposure, 10-14 days
  IC50: 100 nM
EOC R182 cells; EOC R182, 0.1 μM for 30 hr
  expression of the active forms of caspase-3: no expression of caspase-3 active forms
CP70 cells [3]; CP70, 0.1 μM for 30 hr
  expression of the active forms of caspase-3: induces the expression of the active forms of caspase-3
EOC cells RI82S; 0.1 μM
  increase in number of TUNEL-positive cells compared to the untreated controls: 30-40%
CP70; CP70 cells, clonogenic assay
  relative response among the three cell lines: most sensitive
CP70; Homo sapiens, CP70, clonogenic survival, 4 hours drug exposure, 10-14 days
  IC50: 18.6 nM
A2780
  IC50: 43.7 nM
